According to US5739278A, “Compositions for protein tyrosine phosphatases” (University of Washington, priority 1995, dated 1998):
Values belong to the compound of their own block, whether it stands above or below them.

Key:
Experiment in all cases: Phosphatase assay with ENDY(P)INASL as substrate
Type in all cases: biochemical
PTP1B = molecular target: T1, PTP1B (Homo sapiens, UniProt P18031)
T1 construct: The 37 kDa form of PTP1B; from tissue; host or cells: placenta
T1 sequence (P18031 1-321 limits assumed): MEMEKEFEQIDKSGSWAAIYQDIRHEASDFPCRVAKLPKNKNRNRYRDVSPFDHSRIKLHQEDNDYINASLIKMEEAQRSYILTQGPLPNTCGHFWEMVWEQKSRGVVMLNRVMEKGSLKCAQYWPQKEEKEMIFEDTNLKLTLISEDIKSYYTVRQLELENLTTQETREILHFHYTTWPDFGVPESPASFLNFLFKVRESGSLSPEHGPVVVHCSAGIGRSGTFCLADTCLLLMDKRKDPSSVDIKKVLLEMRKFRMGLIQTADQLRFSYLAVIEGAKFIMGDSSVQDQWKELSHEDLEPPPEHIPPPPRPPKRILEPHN
Protocol: (§1) The tyrosine phosphatases TC.PTP, TCΔC11.PTP, and RPTPα were purified from infected Sf9 cells as described recently (Zander et al., Biochemistry 30: 6964-6970, 1991; Daum et al., J. Biol. Chem. 266: 12211-12215, 1991). The 37 kDa form of PTP1B and CD45 were purified from placenta and spleen, respectively (according to Tonks et al., J. Biol. Chem. 263: 6722-6730, 1988; Tonks et al., Biochemistry 27: 8695-8701, 1988).
(§2) Phosphatase assays with ENDY(P)INASL were performed in buffer M6. Aliquots of 30 μl or 60 μl containing the phosphopeptide, the phosphatase (-beads) and effectors were incubated for 10 minutes at 30° C. The reaction was stopped by adding 200 μl of a suspension of 10% activated, acid-washed Norit A charcoal (v/v) in 0.9N HCl, 0.1M pyrophosphate and 2 mM NaH2 PO4 (according to Streuli et al., Proc. Natl. Acad. Sci. USA 86: 8698-8702, 1989). The mixture was cleared by 10-minute centrifugation and the radioactivity of 150 μl of the supernate was determined. Assays with MBP and RCML were performed as described in Tonks et al., J. Biol. Chem. 263: 6722-6730, 1988. Protein concentration was determined with BSA as standard (Bradford, Anal. Biochem. 72: 248-254, 1976).

RPTPα = molecular target: T2, RPTPα (Homo sapiens, UniProt P18433)
T2 construct: made in house; host or cells: Sf9 cells (baculovirus)
T2 sequence (P18433 20-802): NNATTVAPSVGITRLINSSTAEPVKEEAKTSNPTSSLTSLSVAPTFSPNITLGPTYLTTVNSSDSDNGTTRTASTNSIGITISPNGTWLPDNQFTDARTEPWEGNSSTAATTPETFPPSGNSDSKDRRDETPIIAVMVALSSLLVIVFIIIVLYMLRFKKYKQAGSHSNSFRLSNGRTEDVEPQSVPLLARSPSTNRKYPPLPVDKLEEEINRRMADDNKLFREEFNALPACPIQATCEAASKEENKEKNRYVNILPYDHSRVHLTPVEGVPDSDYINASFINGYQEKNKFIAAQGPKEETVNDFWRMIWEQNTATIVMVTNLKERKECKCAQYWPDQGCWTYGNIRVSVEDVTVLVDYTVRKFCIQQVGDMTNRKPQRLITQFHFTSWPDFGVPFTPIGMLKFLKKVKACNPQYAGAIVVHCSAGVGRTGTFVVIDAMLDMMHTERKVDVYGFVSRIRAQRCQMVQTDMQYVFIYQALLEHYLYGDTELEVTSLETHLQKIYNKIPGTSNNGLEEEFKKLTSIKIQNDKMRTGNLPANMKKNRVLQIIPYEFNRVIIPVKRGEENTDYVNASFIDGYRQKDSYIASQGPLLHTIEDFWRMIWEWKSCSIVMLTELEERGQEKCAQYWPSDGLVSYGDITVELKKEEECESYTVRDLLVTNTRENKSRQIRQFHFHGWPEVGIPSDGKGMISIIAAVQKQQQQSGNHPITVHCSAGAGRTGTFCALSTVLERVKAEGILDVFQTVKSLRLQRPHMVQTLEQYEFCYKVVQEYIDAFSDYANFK
Protocol: as §1, §2

TCΔC11.PTP = molecular target: T3, TCΔC11.PTP (Homo sapiens, UniProt P17706)
T3 construct: both the wild type and truncated forms of the T-cell phosphatase; made in house; host or cells: Sf9 cells (baculovirus)
T3 sequence (P17706 1-317 limits assumed): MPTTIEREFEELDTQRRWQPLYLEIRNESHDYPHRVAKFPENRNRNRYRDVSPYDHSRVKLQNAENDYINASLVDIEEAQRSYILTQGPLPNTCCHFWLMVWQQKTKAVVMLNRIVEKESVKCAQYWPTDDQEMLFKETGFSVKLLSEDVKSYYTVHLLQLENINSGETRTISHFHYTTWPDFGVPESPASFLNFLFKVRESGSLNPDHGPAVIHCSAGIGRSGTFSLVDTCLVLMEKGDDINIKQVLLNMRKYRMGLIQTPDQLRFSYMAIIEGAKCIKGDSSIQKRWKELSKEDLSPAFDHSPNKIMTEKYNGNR
Protocol: as §1, §2

TC.PTP = molecular target: T4, TC.PTP (Homo sapiens, UniProt P17706); settings: TC.PTP
T4 construct: made in house; host or cells: Sf9 cells (baculovirus)
T4 sequence (P17706 1-415): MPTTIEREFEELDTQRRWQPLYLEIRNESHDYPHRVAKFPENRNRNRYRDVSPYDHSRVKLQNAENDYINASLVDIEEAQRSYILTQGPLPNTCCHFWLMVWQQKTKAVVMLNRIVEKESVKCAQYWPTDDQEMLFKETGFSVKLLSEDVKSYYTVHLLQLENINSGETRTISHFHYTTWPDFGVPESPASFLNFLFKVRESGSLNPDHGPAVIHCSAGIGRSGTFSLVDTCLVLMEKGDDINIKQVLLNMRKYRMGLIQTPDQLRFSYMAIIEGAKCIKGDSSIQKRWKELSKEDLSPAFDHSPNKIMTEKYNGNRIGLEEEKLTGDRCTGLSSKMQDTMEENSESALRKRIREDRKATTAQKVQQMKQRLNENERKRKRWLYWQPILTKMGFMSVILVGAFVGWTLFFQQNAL
Protocol: as §1, §2

CD45 = molecular target: T5, CD45 (Homo sapiens, UniProt P08575)
T5 construct: CD45 were purified from placenta and spleen, respectively; from tissue; host or cells: spleen
T5 sequence (P08575 26-1306): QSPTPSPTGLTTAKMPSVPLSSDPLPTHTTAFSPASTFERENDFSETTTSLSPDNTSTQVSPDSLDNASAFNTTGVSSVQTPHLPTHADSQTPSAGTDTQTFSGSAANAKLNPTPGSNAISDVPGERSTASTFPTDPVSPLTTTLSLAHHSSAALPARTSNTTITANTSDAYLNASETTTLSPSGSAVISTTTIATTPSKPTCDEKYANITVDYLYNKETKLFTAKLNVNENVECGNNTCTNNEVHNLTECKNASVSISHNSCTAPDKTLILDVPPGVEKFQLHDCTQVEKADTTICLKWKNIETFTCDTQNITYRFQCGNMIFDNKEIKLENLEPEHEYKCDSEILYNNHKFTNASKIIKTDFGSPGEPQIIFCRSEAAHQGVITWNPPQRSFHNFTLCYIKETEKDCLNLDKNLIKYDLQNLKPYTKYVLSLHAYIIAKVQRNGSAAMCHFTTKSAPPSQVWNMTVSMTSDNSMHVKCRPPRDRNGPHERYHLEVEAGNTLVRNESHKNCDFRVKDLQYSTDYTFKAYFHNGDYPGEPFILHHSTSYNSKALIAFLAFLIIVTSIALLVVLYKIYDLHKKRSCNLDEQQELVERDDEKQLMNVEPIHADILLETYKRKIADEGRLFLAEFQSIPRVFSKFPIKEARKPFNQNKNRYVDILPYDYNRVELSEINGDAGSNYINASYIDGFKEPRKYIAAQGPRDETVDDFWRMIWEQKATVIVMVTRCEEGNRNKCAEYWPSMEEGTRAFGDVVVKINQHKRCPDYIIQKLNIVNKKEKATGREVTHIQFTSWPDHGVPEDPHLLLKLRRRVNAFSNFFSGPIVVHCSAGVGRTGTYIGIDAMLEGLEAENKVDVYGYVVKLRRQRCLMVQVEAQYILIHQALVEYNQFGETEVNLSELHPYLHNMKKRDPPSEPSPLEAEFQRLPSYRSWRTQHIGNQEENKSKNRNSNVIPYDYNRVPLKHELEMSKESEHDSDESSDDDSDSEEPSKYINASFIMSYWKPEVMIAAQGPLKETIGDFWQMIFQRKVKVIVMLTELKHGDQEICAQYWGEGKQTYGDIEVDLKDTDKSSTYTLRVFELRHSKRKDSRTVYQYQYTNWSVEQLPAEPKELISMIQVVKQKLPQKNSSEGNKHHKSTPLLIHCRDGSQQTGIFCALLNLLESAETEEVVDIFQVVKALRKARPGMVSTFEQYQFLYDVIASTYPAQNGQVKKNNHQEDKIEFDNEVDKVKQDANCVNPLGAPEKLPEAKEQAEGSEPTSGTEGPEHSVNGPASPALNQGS
Protocol: as §1, §2

[1] = 10 min, effector 0.1 mM, read-out: Phosphatase activity in percent of the value obtained in the absence of effectors
[2] = 10 min, effector 2.0 mM, read-out: Phosphatase activity in percent of the value obtained in the absence of effectors
[3] = 10 min, effector 5.0 mM, read-out: Phosphatase activity in percent of the value obtained in the absence of effectors
[4] = 10 min, effector 0.5 mM, read-out: Phosphatase activity in percent of the value obtained in the absence of effectors
[5] = 10 min, effector 1.0 mM, read-out: Phosphatase activity in percent of the value obtained in the absence of effectors

- Phosphatase activity in percent of the value obtained in the absence of effectors (PTP1B; effector 0.01 mM): 65%
- Phosphatase activity in percent of the value obtained in the absence of effectors (PTP1B; effector 0.1 mM): 17%
- Phosphatase activity in percent of the value obtained in the absence of effectors (PTP1B; effector 1.0 mM): 6%
- Phosphatase activity in percent of the value obtained in the absence of effectors (RPTPα; effector 0.01 mM): 99%
- Phosphatase activity in percent of the value obtained in the absence of effectors (RPTPα; effector 0.1 mM): 77%
- Phosphatase activity in percent of the value obtained in the absence of effectors (RPTPα; effector 1.0 mM): 4%
- Phosphatase activity in percent of the value obtained in the absence of effectors (TCΔC11.PTP; effector 0.01 mM): 61%
- Phosphatase activity in percent of the value obtained in the absence of effectors (TCΔC11.PTP; effector 0.1 mM): 54%
- Phosphatase activity in percent of the value obtained in the absence of effectors (TCΔC11.PTP; effector 1.0 mM): 21%
- Phosphatase activity in percent of the value obtained in the absence of effectors (TC.PTP; effector 0.01 mM): 61%
- Phosphatase activity in percent of the value obtained in the absence of effectors (TC.PTP; effector 0.1 mM): 26%
- Phosphatase activity in percent of the value obtained in the absence of effectors (TC.PTP; effector 1.0 mM): 8%
- Phosphatase activity in percent of the value obtained in the absence of effectors (CD45; effector 0.01 mM): 92%
- Phosphatase activity in percent of the value obtained in the absence of effectors (CD45; effector 0.1 mM): 53%
- Phosphatase activity in percent of the value obtained in the absence of effectors (CD45; effector 1.0 mM): 3%
Compound: [Zn+2] [Zn^2+]

- Phosphatase activity in percent of the value obtained in the absence of effectors (PTP1B; effector 0.1 mM): 89%
- Phosphatase activity in percent of the value obtained in the absence of effectors (PTP1B; effector 2.0 mM): 94%
- Phosphatase activity in percent of the value obtained in the absence of effectors (PTP1B; effector 5.0 mM): 92%
- remaining activity at 100 µM (RPTPα; [1]): 72%
- remaining activity at 2000 µM (RPTPα; [2]): 60%
- remaining activity at 5000 µM (RPTPα; [3]): 34%
- remaining activity at 100 µM (TCΔC11.PTP; [1]): 67%
- remaining activity at 2000 µM (TCΔC11.PTP; [2]): 65%
- remaining activity at 5000 µM (TCΔC11.PTP; [3]): 66%
- remaining activity at 100 µM (TC.PTP; [1]): 92%
- remaining activity at 2000 µM (TC.PTP; [2]): 88%
- remaining activity at 5000 µM (TC.PTP; [3]): 91%
- remaining activity at 100 µM (CD45; [1]): 103%
- remaining activity at 2000 µM (CD45; [2]): 92%
- remaining activity at 5000 µM (CD45; [3]): 83%
Compound: NCCCCNCCCN [spermidine]

- Phosphatase activity in percent of the value obtained in the absence of effectors (PTP1B; effector 0.1 mM): 87%
- Phosphatase activity in percent of the value obtained in the absence of effectors (PTP1B; effector 0.5 mM): 89%
- Phosphatase activity in percent of the value obtained in the absence of effectors (PTP1B; effector 1.0 mM): 82%
- remaining activity at 100 µM (RPTPα; [1]): 89%
- remaining activity at 500 µM (RPTPα; [4]): 57%
- remaining activity at 1000 µM (RPTPα; [5]): 41%
- remaining activity at 100 µM (TCΔC11.PTP; [1]): 81%
- remaining activity at 500 µM (TCΔC11.PTP; [4]): 60%
- remaining activity at 1000 µM (TCΔC11.PTP; [5]): 55%
- remaining activity at 100 µM (TC.PTP; [1]): 119%
- remaining activity at 500 µM (TC.PTP; [4]): 109%
- remaining activity at 1000 µM (TC.PTP; [5]): 82%
- remaining activity at 100 µM (CD45; [1]): 117%
- remaining activity at 500 µM (CD45; [4]): 100%
- remaining activity at 1000 µM (CD45; [5]): 85%
Compound: NCCCNCCCCNCCCN [spermine]

- Phosphatase activity in percent of the value obtained in the absence of effectors (PTP1B; effector 0.01 μM): 91%
- Phosphatase activity in percent of the value obtained in the absence of effectors (PTP1B; effector 0.1 μM): 0%
- Phosphatase activity in percent of the value obtained in the absence of effectors (PTP1B; effector 1.0 μM): 0%
- Phosphatase activity in percent of the value obtained in the absence of effectors (RPTPα; effector 0.01 μM): 82%
- Phosphatase activity in percent of the value obtained in the absence of effectors (RPTPα; effector 0.1 μM): 40%
- Phosphatase activity in percent of the value obtained in the absence of effectors (RPTPα; effector 1.0 μM): 19%
- Phosphatase activity in percent of the value obtained in the absence of effectors (TCΔC11.PTP; effector 0.01 μM): 88%
- Phosphatase activity in percent of the value obtained in the absence of effectors (TCΔC11.PTP; effector 0.1 μM): 4%
- Phosphatase activity in percent of the value obtained in the absence of effectors (TCΔC11.PTP; effector 1.0 μM): 0%
- Phosphatase activity in percent of the value obtained in the absence of effectors (TC.PTP; effector 0.01 μM): 8%
- Phosphatase activity in percent of the value obtained in the absence of effectors (TC.PTP; effector 0.1 μM): 1%
- Phosphatase activity in percent of the value obtained in the absence of effectors (TC.PTP; effector 1.0 μM): 0%
- Phosphatase activity in percent of the value obtained in the absence of effectors (CD45; effector 0.01 μM): 8%
- Phosphatase activity in percent of the value obtained in the absence of effectors (CD45; effector 0.1 μM): 0%
- Phosphatase activity in percent of the value obtained in the absence of effectors (CD45; effector 1.0 μM): 0%
Compound: heparin
